Laboratory results as given in patent publication US20110189241A1, “Process For Controlling The Particle Size of A [3-(Trifluoromethyl)Phenyl]-1-Aminopropane Derivative” (Medichem, S.A., priority 2008, published 2011).

Assay: Particle size distribution (Malvern Mastersizer S, laser diffraction, by volume)
Assay type: physicochemical
Settings: for particle size D[v, 0.5]: crystals as isolated after crystallization from isobutyl acetate and drying, mean of nine readings, hydrochloride
Procedure: The particle size for cinacalcet hydrochloride was measured using a Malvern Mastersizer S particle size analyzer with an MS1 Small Volume Sample Dispersion Unit stirred cell. A 300RF mm lens and a beam length of 2.4 mm were used. Samples for analysis were prepared by dispersing a weighed amount of cinacalcet hydrochloride (approximately 60 mg) in 20 mL of sample dispersant, previously prepared by dilution of 1.5 g of Soybean Lecithin to 200 mL with Isopar G. The suspension was delivered drop-wise to the background-corrected measuring cell filled with dispersant (Isopar G) until the obscuration reached the desired level. Nine repeated readings of the volume distributions were taken. For characterization, the values of D50 and D90 (by volume) were selected and reported as the mean of the nine values measured.

Row | particle size D[v, 0.5] [μm] | particle size D[v, 0.9] (crystals as isolated after crystallization (Example 4)) [µm] | particle size D[v, 0.9] (crystals as isolated after crystallization (Example 9)) [µm] | Compound
1 | 65.0 |  |  | C[C@@H](NCCCc1cccc(C(F)(F)F)c1)c1cccc2ccccc12.Cl [Example 6, cinacalcet hydrochloride]
2 |  | 404 |  | C[C@@H](NCCCc1cccc(C(F)(F)F)c1)c1cccc2ccccc12.Cl [Example 4, cinacalcet hydrochloride]
3 | 74.0 |  | 518 | C[C@@H](NCCCc1cccc(C(F)(F)F)c1)c1cccc2ccccc12.Cl [Example 9, cinacalcet hydrochloride]
